Test results from PubChem BioAssay (NCI).
Values joined by “and” are separate entries in the source; they are usually repeats but may differ in a detail not shown here. Equal entries are not always repeated.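 Five compound concentrations were applied to cells in 96-well plates for 48 hours; endpoints were derived by simple linear interpolation of the resulting dose-response curve. GI50 is the concentration that inhibits growth by half. At the TGI there is no net growth.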 *1 amine or outer side, *2 acyl side, *3 side chain or, on linkers, in order; H or OH if unused. Where a SMILES comes first, the peptide text is derived from it. Bridges are numbered along the chain shown (N, C = ends). [ ]: non-standard residue; d: D form. The star is where a group is joined. Phe(3-Me) = Cc1cccc(C[C@H](N)C(=O)O)c1; NH(4-Cl-2-F-phenyl) = Fc1cc(Cl)ccc1N*; Pro(4R-Me) = C[C@H]1CN[C@H](C(=O)O)C1; Propanoyl(3-NMe2) = CN(C)CCC(=O)*; Hyp = O=C(O)[C@@H]1C[C@@H](O)CN1; aThr = C[C@H](O)[C@H](N)C(=O)O; Pip = O=C(O)[C@@H]1CCCCN1; CO = O=C([*:1])[*:2]

Legend:
Assay in all cases: NCI anticancer screen, dose series, 48 h
[1] = system: ACHN renal
[2] = system: PC-3 prostate
[3] = system: SF-295 CNS
[4] = system: UACC-62 melanoma
[5] = system: SK-MEL-5 melanoma
[6] = system: SNB-75 CNS
[7] = system: LOX IMVI melanoma
[8] = system: MDA-MB-231 breast
[9] = system: NCI-H460 lung
[10] = system: A498 renal

Structure (SMILES): CC/C=C\C/C=C\C[C@H]1C/C=C2/C(=O)C=C[C@H]2C/C=C\CCC(=O)O1
- GI50 [1]: 2.6 µM
- TGI [1]: 5.2 µM
- GI50 [2]: 3.39 µM
- TGI [2]: 12.5 µM
- GI50 [3]: 3.01 µM
- TGI [3]: 9.29 µM
- GI50 [4]: 2.09 µM
- TGI [4]: 5.47 µM
- GI50 [5]: 2.24 µM
- TGI [5]: 4.41 µM
- GI50 [6]: 10.1 µM
- TGI [6]: > 14.3 µM
- GI50 [7]: 2.34 µM
- TGI [7]: 4.78 µM
- GI50 [8]: 4.65 µM
- TGI [8]: > 14.3 µM
- GI50 [9]: 3.1 µM
- TGI [9]: 7.96 µM
- GI50 [10]: 4.07 µM
- TGI [10]: 13.3 µM

Structure (SMILES): Cn1c(=S)sc2nc3ccccc3n2c1=S
- TGI [1]: 24 µM
- TGI [2]: 92.3 µM
- TGI [3]: 50.6 µM
- TGI [4]: 32.8 µM
- TGI [5]: 27 µM
- TGI [6]: 48.8 µM
- TGI [7]: 26.2 µM
- TGI [8]: 38 µM
- TGI [9]: 27.9 µM
- TGI [10]: 46.9 µM

Structure (SMILES): Cc1cccc(C[C@H](NC(=O)Nc2ccc(Cl)cc2F)C(=O)N[C@@H]2C(=O)N3C[C@H](OC(=O)CCN(C)C)C[C@H]3C(=O)N3CCCC[C@H]3C(=O)N[C@@H](C)C(=O)N3C[C@H](C)C[C@H]3C(=O)O[C@H]2C)c1 ({NH(4-Cl-2-F-phenyl)-CO}-[Phe(3-Me)][aThr][Hyp](Propanoyl(3-NMe2))[Pip]A[Pro(4R-Me)]; ester 2-C)
- GI50 [1]: 1.75 µM
- TGI [1]: 3.49 µM
- GI50 [2]: 0.368 µM
- TGI [2]: 1.76 µM
- GI50 [3]: 0.426 µM
- TGI [3]: 2.15 µM
- GI50 [4]: 0.569 µM
- TGI [4]: 2.06 µM
- GI50 [5]: 0.46 µM
- TGI [5]: 1.62 µM
- GI50 [6]: 1.26 µM
- TGI [6]: 9.44 µM
- GI50 [7]: 0.683 µM
- TGI [7]: 2.2 µM
- GI50 [8]: 0.417 µM
- TGI [8]: 1.66 µM
- GI50 [9]: 0.386 µM
- TGI [9]: 1.82 µM
- GI50 [10]: 0.43 µM
- TGI [10]: 3.29 µM

Structure (SMILES): COc1ccc(Cn2c(Br)c3c(c2-c2cc(OC)c(OC)c(OC)c2)CCc2sc(NC(C)=O)nc2-3)cc1
- GI50 [1]: 5.27 µM
- TGI [1]: 26.9 µM
- GI50 [2]: 3.44 µM
- TGI [2]: > 100 µM
- GI50 [3]: 2.41 µM
- TGI [3]: 8.54 µM
- GI50 [4]: 4.29 µM
- TGI [4]: > 100 µM
- GI50 [5]: 2.82 µM
- TGI [5]: 21.4 µM
- GI50 [6]: 1.82 µM
- TGI [6]: > 100 µM
- GI50 [7]: 4.45 µM
- TGI [7]: 42.8 µM
- GI50 [8]: 3.22 µM
- TGI [8]: 43.6 µM
- GI50 [9]: 3.05 µM
- TGI [9]: > 100 µM
- GI50 [10]: 2.5 µM
- TGI [10]: 9.58 µM

Structure (SMILES): O=C(Nc1ccc(Br)cc1F)c1cc(Br)ccc1O
- GI50 [1]: 0.848 µM
- TGI [1]: 9.18 µM
- GI50 [2]: 2.06 µM
- TGI [2]: 7.69 µM
- GI50 [3]: 1.58 µM
- TGI [3]: 3.56 µM
- GI50 [4]: 0.303 µM
- TGI [4]: 1.23 µM
- GI50 [5]: 0.289 µM
- TGI [5]: 1.19 µM
- GI50 [6]: 0.768 µM
- TGI [6]: 5.95 µM
- GI50 [7]: 0.668 µM
- TGI [7]: 4.47 µM
- GI50 [8]: 1.09 µM
- TGI [8]: 4.9 µM
- GI50 [9]: 0.5 µM
- TGI [9]: 7.2 µM
- GI50 [10]: 0.246 µM
- TGI [10]: 1.12 µM

Structure (SMILES): CC(=O)OCC1OC(n2c(-c3ccccc3)c(C)c(C)c(C#N)c2=S)C(OC(C)=O)C(OC(C)=O)C1OC(C)=O (configuration not stated)
- GI50 [1]: 26.8 µM and > 100 µM
- TGI [1]: > 100 µM
- TGI [2]: > 100 µM
- TGI [3]: > 50 µM and 66.4 µM
- TGI [4]: > 50 µM and 43.5 µM
- TGI [5]: > 100 µM
- TGI [6]: > 100 µM
- GI50 [7]: 14.1 µM and > 100 µM
- TGI [7]: > 100 µM
- TGI [8]: > 50 µM and 30.9 µM
- TGI [9]: > 100 µM
- TGI [10]: > 100 µM
